Test results reported in ChEMBL document CHEMBL3885861, “Open TG-GATES”.

Species: Rattus norvegicus
Experiment: Open TG-GATES - Regimen: Daily Repeat
Assay type: toxicity, organism-based, Sprague-Dawley
Parameters: regimen Daily Repeat, gender Male, age 6 weeks
Settings: in vivo, po, 0 mg/kg, route gavage, dose level Control; for APTT / Bas / Eos / Fbg / Hb / Ht / Lym / MCH / MCV / Mono / Neu / PT / Plat / RBC / Ret / WBC / MCHC: tissue Blood; for KIDNEY_L / KIDNEY_R / KIDNEY_TOTAL: tissue Kidney; for LIVER: tissue Liver; for ALP / ALT / AST / CRE / Ca / Cl / DBIL / GLC / IP / K / LDH / Na / PL / RALB / TBIL / TC / TG / TP / gamma-GTP / BUN: tissue Plasma

CCOc1ccc(NC(C)=O)cc1 [PHENACETIN]
TERMINAL_BW (72 h, time 3 day): 242.4 g | APTT (72 h, time 3 day): 16.7 s | Bas (72 h, time 3 day): 0% | Eos (72 h, time 3 day): 1% | Fbg (72 h, time 3 day): 299.2 mg/dL | Hb (72 h, time 3 day): 13.2 g/dL | Ht (72 h, time 3 day): 39.8% | Lym (72 h, time 3 day): 71.2% | MCH (72 h, time 3 day): 21.1 pg | MCV (72 h, time 3 day): 63.4 fL | Mono (72 h, time 3 day): 2.8% | Neu (72 h, time 3 day): 24.4% | PT (72 h, time 3 day): 13.2 s | Plat (72 h, time 3 day): 121.2 x10_4/uL | RBC (72 h, time 3 day): 628.2 x10_4/ul | Ret (72 h, time 3 day): 6.6% | WBC (72 h, time 3 day): 85.4 x10_2/uL | KIDNEY_L (72 h, time 3 day): 1 g | KIDNEY_R (72 h, time 3 day): 1 g | KIDNEY_TOTAL (72 h, time 3 day): 2 g | LIVER (72 h, time 3 day): 11.5 g | ALP (72 h, time 3 day): 2120 IU/L | ALT (72 h, time 3 day): 37.8 IU/L | AST (72 h, time 3 day): 67.2 IU/L | CRE (72 h, time 3 day): 0.2 mg/dL | Ca (72 h, time 3 day): 11.1 mg/dL | Cl (72 h, time 3 day): 105.6 meq/L | DBIL (72 h, time 3 day): 0.004 mg/dL | GLC (72 h, time 3 day): 176.6 mg/dL | IP (72 h, time 3 day): 7.2 mg/dL | K (72 h, time 3 day): 4.2 meq/L | LDH (72 h, time 3 day): 118.6 IU/L | Na (72 h, time 3 day): 143.8 meq/L | PL (72 h, time 3 day): 171 mg/dL | RALB (72 h, time 3 day): 2.6 g/dL | TBIL (72 h, time 3 day): 0.04 mg/dL | TC (72 h, time 3 day): 85.8 mg/dL | TG (72 h, time 3 day): 102.4 mg/dL | TP (72 h, time 3 day): 5.7 g/dL | gamma-GTP (72 h, time 3 day): 1 IU/L | TERMINAL_BW ([…], time 7 day): 272.4 g | TERMINAL_BW ([…], time 14 day): 332.8 g | TERMINAL_BW ([…], time 28 day): 424.6 g | APTT ([…], time 7 day): 17.7 s | Bas ([…], time 7 day): 0% | Eos ([…], time 7 day): 1.4% | Fbg ([…], time 7 day): 300.2 mg/dL | Hb ([…], time 7 day): 13.9 g/dL | Ht ([…], time 7 day): 41.1% | Lym ([…], time 7 day): 78.6% | MCH ([…], time 7 day): 21.2 pg | MCHC ([…], time 7 day): 33.8% | MCV ([…], time 7 day): 62.6 fL | Mono ([…], time 7 day): 2.6% | PT ([…], time 7 day): 13.5 s | Plat ([…], time 7 day): 118.8 x10_4/uL | RBC ([…], time 7 day): 656.2 x10_4/ul | Ret ([…], time 7 day): 5.4% | WBC ([…], time 7 day): 93.4 x10_2/uL | APTT ([…], time 14 day): 17.5 s | Bas ([…], time 14 day): 0% | Eos ([…], time 14 day): 1.4% | Fbg ([…], time 14 day): 320.2 mg/dL | Hb ([…], time 14 day): 14.3 g/dL | Ht ([…], time 14 day): 42.1% | Lym ([…], time 14 day): 75% | MCH ([…], time 14 day): 19.9 pg | MCHC ([…], time 14 day): 34% | MCV ([…], time 14 day): 58.6 fL | Mono ([…], time 14 day): 2.6% | Neu ([…], time 14 day): 20.6% | PT ([…], time 14 day): 13.3 s | Plat ([…], time 14 day): 117.7 x10_4/uL | RBC ([…], time 14 day): 720.4 x10_4/ul | Ret ([…], time 14 day): 4.1% | WBC ([…], time 14 day): 108.4 x10_2/uL | APTT ([…], time 28 day): 23 s | Bas ([…], time 28 day): 0% | Eos ([…], time 28 day): 1.4% | Fbg ([…], time 28 day): 276 mg/dL | Hb ([…], time 28 day): 15 g/dL | Ht ([…], time 28 day): 43.5% | Lym ([…], time 28 day): 73.2% | MCH ([…], time 28 day): 19.2 pg | MCV ([…], time 28 day): 55.6 fL | Mono ([…], time 28 day): 2.6% | Neu ([…], time 28 day): 22.2% | PT ([…], time 28 day): 14 s | Plat ([…], time 28 day): 114.1 x10_4/uL | RBC ([…], time 28 day): 782.6 x10_4/ul | Ret ([…], time 28 day): 2.6% | WBC ([…], time 28 day): 109.3 x10_2/uL | KIDNEY_L ([…], time 7 day): 1.1 g | KIDNEY_R ([…], time 7 day): 1.1 g | KIDNEY_TOTAL ([…], time 7 day): 2.3 g | KIDNEY_L ([…], time 14 day): 1.3 g | KIDNEY_R ([…], time 14 day): 1.3 g | KIDNEY_TOTAL ([…], time 14 day): 2.7 g | KIDNEY_L ([…], time 28 day): 1.4 g | KIDNEY_R ([…], time 28 day): 1.4 g | KIDNEY_TOTAL ([…], time 28 day): 2.7 g | LIVER ([…], time 7 day): 12.1 g | LIVER ([…], time 14 day): 13.9 g | LIVER ([…], time 28 day): 17 g | ALP ([…], time 7 day): 1453 IU/L | ALT ([…], time 7 day): 33.4 IU/L | AST ([…], time 7 day): 65.8 IU/L | BUN ([…], time 7 day): 15 mg/dL | CRE ([…], time 7 day): 0.2 mg/dL | Ca ([…], time 7 day): 10.9 mg/dL | Cl ([…], time 7 day): 105 meq/L | DBIL ([…], time 7 day): 0.004 mg/dL | IP ([…], time 7 day): 7.1 mg/dL | K ([…], time 7 day): 4.2 meq/L | LDH ([…], time 7 day): 95.8 IU/L | PL ([…], time 7 day): 167.6 mg/dL | RALB ([…], time 7 day): 2.7 g/dL | TBIL ([…], time 7 day): 0.044 mg/dL | TC ([…], time 7 day): 84.4 mg/dL | TG ([…], time 7 day): 127.8 mg/dL | TP ([…], time 7 day): 5.9 g/dL | gamma-GTP ([…], time 7 day): 1 IU/L | ALP ([…], time 14 day): 1542.8 IU/L | ALT ([…], time 14 day): 36.4 IU/L | AST ([…], time 14 day): 62.4 IU/L | BUN ([…], time 14 day): 14.6 mg/dL | CRE ([…], time 14 day): 0.2 mg/dL | Ca ([…], time 14 day): 10.8 mg/dL | Cl ([…], time 14 day): 104.6 meq/L | DBIL ([…], time 14 day): 0.024 mg/dL | GLC ([…], time 14 day): 181.4 mg/dL | IP ([…], time 14 day): 7.1 mg/dL | K ([…], time 14 day): 4.2 meq/L | LDH ([…], time 14 day): 158.6 IU/L | Na ([…], time 14 day): 143.6 meq/L | PL ([…], time 14 day): 152 mg/dL | RALB ([…], time 14 day): 2.7 g/dL | TBIL ([…], time 14 day): 0.062 mg/dL | TC ([…], time 14 day): 72.6 mg/dL | TG ([…], time 14 day): 129 mg/dL | TP ([…], time 14 day): 6 g/dL | gamma-GTP ([…], time 14 day): 1.2 IU/L | ALP ([…], time 28 day): 1212.8 IU/L | ALT ([…], time 28 day): 37 IU/L | AST ([…], time 28 day): 68.2 IU/L | BUN ([…], time 28 day): 17.2 mg/dL | CRE ([…], time 28 day): 0.3 mg/dL | Ca ([…], time 28 day): 10.7 mg/dL | Cl ([…], time 28 day): 104.8 meq/L | DBIL ([…], time 28 day): 0.02 mg/dL | GLC ([…], time 28 day): 185.2 mg/dL | IP ([…], time 28 day): 6 mg/dL | K ([…], time 28 day): 4 meq/L | LDH ([…], time 28 day): 76.6 IU/L | Na ([…], time 28 day): 144.8 meq/L | PL ([…], time 28 day): 149 mg/dL | RALB ([…], time 28 day): 2.9 g/dL | TBIL ([…], time 28 day): 0.048 mg/dL
